Each structure is given as a SMILES string.

One assay relates to leukotriene biosynthesis. In words: In vivo inhibition of leukotriene biosynthesis, rat peritoneal anaphylaxis model. The note with it: 1 h, 200 μmol/kg oral dose, gavage one hour prior to antigen challenge, read-out: Percent Inhibition. Here is the method: Inhibition of the biosynthesis of leukotrienes in vivo after oral administration of compound was determined using a rat peritoneal anaphylaxis model in a similar manner as that described by Young and coworkers (Young, P. R.; Dyer, R. D.; Carter, G. W. Fed. Proc., Fed. Am. Soc. Exp. Biol. 1985, 44, 1185). In this model rats were injected intraperitoneally (ip) with rabbit antibody to bovine serum albumin (BSA) and three hours later injected ip with BSA to induce an antgen-antibody response. Rats were sacrificed 15 minutes after this challenge and the peritoneal fluids were collected and analyzed for leukotriene levels. Test compounds were administered by gavage one hour prior to the antigen challenge. Percent inhibition values were determined by comparing the treatment group to the mean of the control group.

In assay [1] the target is T1, 5-Lipoxygenase from RBL-1 20,000 xg Supernatant (Rattus norvegicus, UniProt P12527).
T1 construct: supermatant from 1.5 million homogenized RBL-1 cells; endogenous in cells; host or cells: RBL-1 cells, 20,000 x g supernatant of homogenate
T1 sequence (P12527 1-673): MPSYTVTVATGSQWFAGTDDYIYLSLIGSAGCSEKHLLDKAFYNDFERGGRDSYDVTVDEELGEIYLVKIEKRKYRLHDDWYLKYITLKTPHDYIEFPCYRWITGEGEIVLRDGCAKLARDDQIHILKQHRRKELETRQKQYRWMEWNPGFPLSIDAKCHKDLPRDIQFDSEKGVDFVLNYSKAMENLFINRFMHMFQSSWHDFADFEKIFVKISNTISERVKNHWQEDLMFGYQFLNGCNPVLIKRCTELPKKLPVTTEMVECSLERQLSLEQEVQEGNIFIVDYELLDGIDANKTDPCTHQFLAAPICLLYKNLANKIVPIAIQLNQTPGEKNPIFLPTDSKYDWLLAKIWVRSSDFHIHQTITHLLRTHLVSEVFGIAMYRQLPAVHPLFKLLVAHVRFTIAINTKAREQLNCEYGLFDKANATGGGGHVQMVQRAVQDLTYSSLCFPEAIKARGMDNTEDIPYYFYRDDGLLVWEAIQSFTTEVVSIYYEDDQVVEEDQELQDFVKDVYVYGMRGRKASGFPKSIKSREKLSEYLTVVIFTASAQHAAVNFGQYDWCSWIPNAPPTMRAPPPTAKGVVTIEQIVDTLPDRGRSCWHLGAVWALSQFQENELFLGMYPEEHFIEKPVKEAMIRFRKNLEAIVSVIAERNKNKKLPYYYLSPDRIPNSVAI
Put plainly: In vitro inhibition of 5-lipoxygenase from RBL-1 20,000 xg supernatant. It is filed as biochemical. The note with it: radiolabeled arachidonic acid. Here is the method: Assays to determine 5-lipoxygenase inhibitory activity were performed in […] incubations containing the 20,000xg supermatant from 1.5 million homogenized RBL-1 cells and various concentrations of the test compound. Reactions were initiated by addition of radiolabeled arachidonic acid and terminated by acidification and ether extraction. Reaction products were separated from nonconverted substrate by thin layer chromatography and measured by liquid scintillation spectroscopy. All incubations are performed in triplicate. Inhibition of 5-lipoxygenase activity was calculated as the ratio of the amount of product formed in the presence and absence of inhibitor. […] (Dyer, R.D.; Haviv, F.; Hanel, A. M.; Bornemier, D. A.; Carter, G. W. Fed. Proc., Fed. Am. Soc. Exp. Biol. 1984, 43, 1462A).

The next assay has as its system 5-lipoxygenase. The settings on record: cited from earlier work.

By IC50 is commonly meant the concentration that inhibits the measured activity by half. With `NC(=O)N(O)Cc1ccc(OCc2ccccc2)cc1` [Example 5, N-hydroxy-N-(4-phenylmethoxyphenylmethyl) urea], the inhibition in vivo at 200 µmol/kg in the assay with leukotriene biosynthesis was 74%. This molecule came in with an IC50 in assay [1] of 610 nM.

Turning to `CC(c1ccsc1)N(O)C(N)=O` (stereo not shown) [Example 43, N-Hydroxy-N-1-(thien-3-yl)ethyl urea], the inhibition in vivo at 200 µmol/kg in the assay with leukotriene biosynthesis was found to be 66%. In assay [1], this molecule registered an IC50 of 3500 nM.

Consider `CC(c1ccc(C(F)(F)F)cc1)N(O)C(N)=O` (stereo not shown) [Example 111, N-Hydroxy-N-(1-(4-trifluoromethylphenyl)ethyl) urea], for which, in the assay with leukotriene biosynthesis, the inhibition in vivo at 200 µmol/kg was 97%.

As for `Cc1ccc(CN(O)C(N)=O)s1` [Example 51, N-hydroxy-N-(5-methylthien-2-yl)methyl urea], the inhibition in vivo at 200 µmol/kg with leukotriene biosynthesis was 94%. This molecule also yielded an IC50 in assay [1] of 200 nM.

For `NC(=O)N(O)Cc1ccc(Br)cc1` [Example 100, N-Hydroxy-N-4-bromobenzylurea], in the assay with leukotriene biosynthesis, the inhibition in vivo at 200 µmol/kg came out at 95%. The molecule further showed an IC50 in assay [1] of 800 nM.

For the molecule `CC(c1ccc(Cl)cc1)N(O)C(N)=O` (stereo not shown) [Example 107, N-Hydroxy-N-(1-(4-chlorophenyl)ethyl) urea], in the assay on leukotriene biosynthesis, the inhibition in vivo at 200 µmol/kg is 99%. The molecule further registered a half-maximal inhibitory concentration (IC50) in assay [1] of 600 nM.

Regarding `Cc1ccc(C(C)N(O)C(N)=O)s1` (stereo not shown) [Example 12, N-Hydroxy-N-1-(5-methylthien-2-yl)ethyl urea], in the assay with leukotriene biosynthesis, the inhibition in vivo at 200 µmol/kg came out at 94%. In assay [1], this molecule showed a concentration for half-maximal inhibition (IC50) of 530 nM.

With `CC(c1ccc(F)cc1)N(O)C(N)=O` (stereo not shown) [Example 109, N-Hydroxy-N-(1-(4-fluorophenyl)ethyl) urea], in the assay on leukotriene biosynthesis, the inhibition in vivo at 200 µmol/kg worked out at 98%. In assay [1], this molecule gave a half-maximal inhibitory concentration (IC50) of 1800 nM.

`NC(=O)N(O)Cc1ccsc1` [Example 44, N-Hydroxy-N-(thien-3-yl)methyl urea]: the inhibition in vivo at 200 µmol/kg with leukotriene biosynthesis is 87%. The molecule also gave a half-maximal inhibitory concentration (IC50) in assay [1] of 4900 nM.

In the case of `COc1cc(C(C)N(O)C(N)=O)cc(OC)c1OCc1ccccc1` (stereo not shown) [Example 7, N-hydroxy-N-(1-(4-phenylmethoxy-3,5-dimethoxyphenyl)ethyl) urea], in the assay with leukotriene biosynthesis, the inhibition in vivo at 200 µmol/kg came to 88%. The molecule also gave an IC50 in assay [1] of 1400 nM.

As to `NC(=O)N(O)Cc1cccs1` [Example 45, N-hydroxy-N-(thien-2-yl)methyl urea], the inhibition in vivo at 200 µmol/kg in the assay with leukotriene biosynthesis worked out at 97%. For the same molecule, the half-inhibitory concentration (IC50) in assay [1] was 6800 nM.

As to `CCC(c1ccc(Br)cc1)N(O)C(N)=O` (stereo not shown) [Example 102, N-Hydroxy-N-(1-(4-bromophenyl)propyl) urea], in the assay with leukotriene biosynthesis, the inhibition in vivo at 200 µmol/kg is 85%.

Consider `CC(c1ccc(-c2ccccc2)s1)N(O)C(N)=O` (stereo not shown) [Example 56, N-hydroxy-N-(1-(5-phenylthien-2-yl)ethyl)urea], for which the inhibition in vivo at 200 µmol/kg in the assay with leukotriene biosynthesis is 89%. Besides, in assay [1], the midpoint of inhibition, the IC50, lay at 400 nM.

Regarding `O=C(O)c1cc(/N=N/c2ccc(S(=O)(=O)Nc3ccccn3)cc2)ccc1O` [sulfasalazine], the 5-lipoxygenase inhibition result with 5-lipoxygenase is on record as “weak 5-lipoxygenase inhibitor”.

In the case of `CNC(=O)N(O)Cc1cccs1` [Example 50, N-hydroxy-N-(thien-2-yl)methyl-N'-methyl urea], the inhibition in vivo at 200 µmol/kg with leukotriene biosynthesis amounted to 90%. This molecule returned an IC50 in assay [1] of 6700 nM.

Take `CNC(=O)N(O)Cc1ccc(Br)cc1` [Example 101, N-Hydroxy-N-4-bromobenzyl-N'-methyl urea]: the inhibition in vivo at 200 µmol/kg in the assay on leukotriene biosynthesis amounted to 93%. The molecule also displayed an IC50 in assay [1] of 300 nM.

`CC(c1ccc(-c2ccccc2)cc1)N(O)C(N)=O` (stereo not shown) [Example 120, N-Hydroxy-N-(1-(4-biphenyl)ethyl) urea]: the inhibition in vivo at 200 µmol/kg in the assay on leukotriene biosynthesis was 77%.

Regarding `Cc1cc(C(C)N(O)C(N)=O)c(C)s1` (stereo not shown) [Example 42, N-Hydroxy-N-1-(2,5-dimethylthien-3-yl)ethyl urea], in the assay on leukotriene biosynthesis, the inhibition in vivo at 200 µmol/kg is 64%. Inhibition in assay [1] was half-maximal at 1500 nM (IC50).

Turning to `NC(=O)N(O)Cc1ccc(-c2ccccn2)s1` [Example 55, N-hydroxy-N-(1-(5-(pyrid-2-yl)thien-2-yl)methyl) urea], the inhibition in vivo at 200 µmol/kg in the assay with leukotriene biosynthesis worked out at 71%. Further, in assay [1], the midpoint of inhibition, the IC50, lay at 2100 nM.

For the molecule `CC(c1ccc(OCc2ccccc2)cc1)N(O)C(N)=O` (stereo not shown) [Example 1, N-hydroxy-N-(1(4-phenylmethoxyphenyl)ethyl)urea], in the assay on leukotriene biosynthesis, the inhibition in vivo at 200 µmol/kg came to 58%. This molecule also registered an IC50 in assay [1] of 430 nM.

`CC(c1cccs1)N(O)C(N)=O` (stereo not shown) [Example 47, N-hydroxy-N-(1-thien-2-yl)ethyl urea]: the inhibition in vivo at 200 µmol/kg in the assay with leukotriene biosynthesis came to 94%. For the same molecule, the IC50 in assay [1] came to 3700 nM.

For the molecule `CC(c1ccc2ccccc2c1)N(O)C(N)=O` (stereo not shown) [Example 9, N-hydroxy-N-(1-(2-naphthyl)ethyl) urea], the inhibition in vivo at 200 µmol/kg in the assay on leukotriene biosynthesis came out at 69%.

For `NC(=O)N(O)CC=Cc1ccsc1` [Example 68, N-hydroxy-N-(3-(1-thien-3-yl)propenyl) urea], the inhibition in vivo at 200 µmol/kg in the assay on leukotriene biosynthesis turned out to be 93%. Also, it took 1900 nM to reach half-maximal inhibition in assay [1] (IC50).

Take `CC(c1ccc(Br)cc1)N(O)C(=O)NCCO` (stereo not shown) [Example 99, N-Hydroxy-N-1-(4-bromophenyl)ethyl-N'-(2-hydroxyethyl)-urea]: in the assay with leukotriene biosynthesis, the inhibition in vivo at 200 µmol/kg worked out at 84%. In assay [1], this molecule yielded a half-maximal inhibitory concentration (IC50) of 300 nM.

In the case of `CCC(c1ccc(Br)cc1)N(O)C(=O)NC` (stereo not shown) [Example 103, N-Hydroxy-N-(1-(4-bromophenyl)propyl)-N'-methylurea], in the assay on leukotriene biosynthesis, the inhibition in vivo at 200 µmol/kg is 88%.

In the case of `CC(c1ccc(OCc2ccccc2)cc1)N(O)C(=O)NO` (stereo not shown) [Example 4], in the assay with leukotriene biosynthesis, the inhibition in vivo at 200 µmol/kg was determined as 63%. The molecule further returned a concentration for half-maximal inhibition (IC50) in assay [1] of 500 nM.

`CC(c1ccc2ccccc2c1)N(O)C(=O)NO` (stereo not shown) [Example 10, N,N'-dihydroxy-N-(1-(2-naphthyl)ethyl) urea] displayed an IC50 in assay [1] of 870 nM.

In assay [1], `CNC(=O)N(O)Cc1ccc(OCc2ccccc2)cc1` [Example 6, N-hydroxy-N-(4-phenylmethoxyphenylmethyl)-N'-methyl-urea] gave a 50% inhibitory concentration (IC50) of 540 nM.

In assay [1], `NC(=O)N(O)Cc1ccc(Br)s1` [Example 130, N-hydroxy-N-(5-bromothien-2-yl)methyl urea] yielded a concentration for half-maximal inhibition (IC50) of 900 nM.

With `CC(c1ccc(OCc2ccccc2)cc1)N(O)C(=O)N(C)C` (stereo not shown) [Example 3], in assay [1], the IC50 is 680 nM.

`Cc1ccc(CC(C)N(O)C(N)=O)s1` (stereo not shown) [Example 72, N-Hydroxy-N-(2-(1-(5-methylthien-2-yl))propyl) urea]: 800 nM corresponded to half-maximal inhibition in assay [1] (IC50).

`CCOC(=O)CNC(=O)N(O)C(C)c1ccsc1` (stereo not shown) [Example 62] came in with a half-maximal inhibitory concentration (IC50) in assay [1] of 4200 nM. This IC50 lies about 5.2-fold higher than the previous one.

For the molecule `NC(=O)N(O)Cc1sccc1Sc1ccc(F)cc1` [Example 143, N-hydroxy-N-[3-(4-fluorophenylthio)thien-2-yl]methyl urea], half-maximal inhibition in assay [1] (IC50) was put at 300 nM.

As for `CNC(=O)N(O)Cc1ccc(C)s1` [Example 52, N-hydroxy-N-1-(5-methylthien-2-yl)methyl-N'-methyl urea], the IC50 in assay [1] is 3900 nM. Compared with the last molecule, the IC50 is about 13-fold higher.

`CC(C)(C)Sc1ccc(/C=C/CN(O)C(N)=O)s1` [Example 154, N-hydroxy-N-3-[5-(tertbutylthio)thien-2-yl]propenyl urea] showed an IC50 in assay [1] of 200 nM. This IC50 lies about 20-fold lower than the previous one.

As for `Cc1ccc(C(C)N(O)C(N)=O)cc1` (stereo not shown) [Example 113, N-Hydroxy-N-(1-(4-methylphenyl)ethyl) urea], the inhibition in vivo at 200 µmol/kg in the assay on leukotriene biosynthesis was 94%. The molecule also had an IC50 in assay [1] of 300 nM.

Regarding `CC(c1ccc(Br)cc1)N(O)C(N)=O` (stereo not shown) [Example 97, N-Hydroxy-N-1-(4-bromophenyl)ethylurea], the inhibition in vivo at 200 µmol/kg in the assay with leukotriene biosynthesis amounted to 94%. The 50% inhibitory concentration (IC50) in assay [1] was 200 nM.

In assay [1], `CNC(=O)N(O)Cc1cccc(Oc2ccccc2)c1` [Example 126] gave a half-maximal inhibitory concentration (IC50) of 800 nM.

For the molecule `Cc1ccsc1CN(O)C(N)=O` [Example 49, N-hydroxy-N-(3-methylthien-2-yl)methyl urea], the inhibition in vivo at 200 µmol/kg in the assay with leukotriene biosynthesis came out at 94%.

These data come from patent publication US5185363A, “Urea based lipoxygenase inhibiting compounds” (Abbott Laboratories, priority 1991, dated 1993).
